Assay results reported in PubChem BioAssay (NCI).
Values joined by “and” are separate entries in the source; they are usually repeats but may differ in a detail not shown here. Equal values may be shown once.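 Compound exposure: 48 hours, 5 concentrations, 96-well plates. Here, GI50 denotes the concentration required for 50% inhibition of growth. Definition used: TGI = concentration required for complete inhibition of growth.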

Tests used:
Assay in all cases: DTP human tumour cell line panel, 48 h
[1] = test system: 786-0 renal
[2] = test system: DU-145 prostate
[3] = test system: HOP-92 NSCLC
[4] = test system: M14 melanoma
[5] = test system: RXF 393 renal
[6] = test system: SF-268 CNS
[7] = test system: SK-MEL-2 melanoma
[8] = test system: SW-620 colon
[9] = test system: HL-60(TB) leukemia
[10] = test system: MOLT-4 leukemia

| Structure (SMILES) | TGI [1] [µM] | TGI [2] [µM] | TGI [3] [µM] | TGI [4] [µM] | TGI [5] [µM] | TGI [6] [µM] | TGI [7] [µM] | TGI [8] [µM] | GI50 [1] [µM] | GI50 [2] [µM] | GI50 [9] [µM] | TGI [9] [µM] | GI50 [3] | GI50 [4] [µM] | GI50 [10] [µM] | TGI [10] [µM] | GI50 [5] [µM] | GI50 [6] [µM] | GI50 [7] [µM] | GI50 [8] [µM] |
| --- | --- | --- | --- | --- | --- | --- | --- | --- | --- | --- | --- | --- | --- | --- | --- | --- | --- | --- | --- | --- |
| O=C(O)CSc1nnc2c3ccccc3c3ccccc3c2n1 | > 100 | > 100 | > 100 | > 100 | > 100 | > 100 | > 100 | > 100 |  |  |  |  |  |  |  |  |  |  |  |  |
| CCCCCCCCCCCCCCCC(N)c1ccccc1 (stereo not drawn) | 3.27 | 3.22 | 3.23 | 3.15 | 3.41 | 3.26 | 3.35 | 3.19 | 1.68 | 1.75 | 1.37 | 3.02 | 1.57 µM | 1.7 | 1.58 | 3.42 | 1.71 | 1.63 | 1.68 | 1.61 |
| COc1cc2c3c(n(CCCN4CCN(CCO)CC4)c(=O)c2cc1OC)-c1cc2c(cc1C3=O)OCO2 | 18 | 2.41 | > 100 | 19.5 | 30.9 | > 100 | > 100 | 24.7 | 4.97 | 0.107 | 6.35 | > 41.7 | > 21.2 µM | 6.23 | 0.0899 | 6.24 | 13.4 | 5.23 | > 100 | 8.37 |
| NCCNc1ncnc2ccc(Cl)cc12 | > 100 | > 100 | > 100 | > 100 | > 100 | > 100 | > 100 | > 100 |  |  |  | > 100 |  |  |  |  |  |  |  |  |
| Nc1ncnc2c1ncn2C1OC(C(=O)OCCO)C(O)C1O (stereo not drawn) | > 100 | > 100 | > 100 | > 100 | > 100 | > 100 | > 100 | > 100 |  |  |  | > 100 |  |  |  | > 100 |  |  |  |  |
| COC(=O)C1=C(O)C(C(=O)OC)[C@@]2(O)[C@@H](C(=O)OC)C(c3ccccc3Cl)C[C@@H]1[C@@H]2C(=O)OC (stereo partly drawn) | 19.5 | 32.9 | 54.2 |  | 35.4 | 65.3 | 17.7 | 21.9 | 5.22 | 14.9 |  |  | 16.1 µM |  | 3.31 | 20.7 | 4.37 | 14.5 | 3.62 | 5.46 |
| CC1SC(c2cccc(Cl)c2)N(NC(=O)C(O)c2ccccc2)C1=O (stereo not drawn) | > 100 | > 100 | > 100 | > 100 | > 100 | > 100 | > 100 | > 100 | > 100 | > 100 |  |  | > 100 µM | > 100 | > 100 | > 100 | 80.6 | > 100 | > 100 | > 100 |
| CC1CC2(C)CC(=O)C1C1C(=O)N(CCN3CCOCC3)C(=O)C12 (stereo not drawn) | > 100 | > 100 | > 100 | > 100 | > 100 | > 100 | > 100 | > 100 | > 100 | > 100 | > 100 | > 100 | > 100 µM | > 100 | > 100 | > 100 | > 100 | > 100 | > 100 | > 100 |
| O=C(Nc1ccc(N2CCNCC2)cn1)c1[nH]ncc1Nc1ncnc2sc3c(c12)CCC3 | 2.98 | 3.06 | > 100 | 3.22 |  |  | 35.1 | 2.05 | 1.41 | 1.6 | 6.28 | 29.8 | 4.69 µM | 1.49 | 2.54 | 19.8 |  |  | 13.6 | 0.476 |
| CN1C(=O)C(C)(C)Oc2c(-c3cn(C)c(=O)c4[nH]ccc34)cc(S(C)(=O)=O)cc21 | > 100 | > 100 | > 100 | > 100 | 7.12 | > 100 | > 100 | 19.2 | 2.06 | 3.85 | 0.281 | 0.847 | 0.408 µM | 0.727 | 1.42 | > 100 | 1.59 | 3.99 | 1.95 | 2.15 |
| C[C@H](c1ccc(Cl)cc1[N+](=O)[O-])N1C(=O)c2cc(I)ccc2NC(=O)[C@H]1c1ccc(Cl)cc1 | > 100 | > 100 | > 100 | > 100 | > 100 | > 100 | > 100 | > 100 | > 100 | > 100 | > 100 | > 100 | 2.79 µM | 85.4 | 8.76 | > 100 | 9.07 | > 100 | > 100 | > 100 |
| CC(=O)N1c2ccc(-c3ccc(C(=O)O)cc3)cc2[C@H](Nc2ccc(Cl)cc2)C[C@@H]1C | 40.2 | > 100 | 13.3 | 23.2 | 40.9 | > 90.9 | 14.3 | > 62 | 0.125 | 12.1 | 0.0384 | 11.1 | 0.024 µM | 0.096 | 1.79 | 39.2 | 5.41 | 5.76 | 0.581 | 11.1 |
| COc1cc[nH]c1/C=C1\C(=O)Nc2ccc([N+](=O)[O-])c(N3CC[C@@H](O)C3)c21 | 3.56 | 2.83 | 2.47 | 1.13 | 0.146 | 1.29 | 0.688 | 9.49 | 0.186 | 0.177 | 0.0831 | 0.213 | 0.544 µM | 0.399 | 0.142 | 2.4 | 0.0566 | 0.255 | 0.229 | 0.205 |
| O=S1(=O)C=C(c2ccccc2)C(c2ccccc2)=C1 | 2.82 | 3 | 3.19 | 3.01 | 3 | 3.38 |  | 2.39 | 1.49 | 1.64 | 2.14 | 5.21 | 1.65 µM | 1.58 |  |  | 1.62 | 1.49 |  | 1.07 |
| CC(C)CC1NC(=O)C(C(C)C)NC(=O)CC(C)COC(=O)C(CC(C)C)N(C)C(=O)C(C(C)C)NC(=O)C(C(C)C)OC1=O (stereo not drawn) | > 50 | > 50 | > 50 | > 50 | 35.2 | > 50 | > 50 | > 50 |  |  |  |  |  |  |  | > 50 |  |  |  |  |
| CN(C)c1ccc(/C=N/NC(=O)c2cnc3ccccc3c2)cc1 | > 100 | > 100 | > 100 | > 100 | 54.9 | 53.3 | > 100 | > 100 |  |  |  | > 100 |  |  |  |  |  |  |  |  |
| COn1cc(C(=O)N=C(SC)SC)c2ccccc21 | 46.9 | > 100 | > 100 | 48.1 | 96.2 | > 100 | 52 | > 100 | 20.4 | 30.9 |  |  | 27.7 µM | 18.4 | 9.42 | 30.1 | 25 | > 100 | 17.6 | 34.8 |
| CSc1nc(-c2cccc(NC(=O)CCl)c2)c(C#N)c(=O)n1C | 3.45 | 3.44 | 3.38 | 5.61 | 3.03 |  | 7.08 | 3.44 | 1.75 | 1.77 | 1.81 | 4.88 | 1.75 µM | 1.78 |  |  | 1.54 |  | 2.17 | 1.51 |
| COc1ccc(OC)c(/C=C/C(=O)c2ccc3cc(OC)ccc3c2)c1 | > 50 | > 20.7 | > 50 | > 50 |  | > 50 | > 50 | > 50 | > 11.7 |  | 4.93 | > 39.4 | 12.4 µM | > 23.4 | 7.74 | 26.1 |  | > 14.3 | > 14.9 |  |
| NC(=S)N=Nc1c(O)[nH]c2ccccc12 | 296 | 284 | 224 |  | 262 | 989 | > 1000 | > 1000 | 142 | 126 | 275 | > 1000 | 64.8 µM and 106 µM |  | 243 | > 1000 | 134 | 189 | 296 | 474 |
| CCCNC(=O)Nc1ccc2c(c1)Cc1cc(N(CCCl)CCCl)ccc1-2 | > 100 | 60.9 | 67.8 | > 100 | 34.2 | > 100 | 62.9 | > 100 |  |  |  | > 100 |  |  |  |  |  |  |  |  |
| CC(C)Cn1cnc2c(SCc3ccccn3)nc(N)nc21 | > 100 | > 100 | > 100 | > 100 | > 100 | > 100 | > 100 | > 100 |  |  |  | > 100 |  |  |  |  |  |  |  |  |
| COc1ccc2c(c1)O/C(=C\c1ccc([N+](=O)[O-])s1)C2=O | > 71.6 | > 24.8 | 5.37 | > 100 | > 20.8 | > 19.8 | > 27 |  | 11.4 | 2.53 |  | > 100 | 1.57 µM | 2.89 | 2.26 | > 100 | 1.85 | 1.8 |  |  |
